Laboratory results from ChEMBL document CHEMBL5036347, “Design of the naphthyl-diarylpyrimidines as potent non-nucleoside reverse transcriptase inhibitors (NNRTIs) via structure-based extension into the entrance channel” (Eur J Med Chem, 2021).
pEC50, pIC50: −log10 of the molar value.

Columns and labels:
[1] = tested on: Human immunodeficiency virus 1; experiment: Anti-HIV activity against HIV-1 IIIB infected in human MT4 cells assessed as reduction in virus-induced cytopathic effect incubated for 5 days by MTT assay; format: functional, organism-based; settings: Human immunodeficiency virus 1, IIIB, MT4, 120 h
[2] = tested on: Human immunodeficiency virus 2; experiment: Anti-HIV activity against HIV2 ROD infected in human MT4 cells assessed as reduction in virus-induced cytopathic effect incubated for 5 days by MTT assay; format: functional, organism-based; settings: Human immunodeficiency virus 2, ROD, MT4, 120 h
[3] = Cytotoxicity against human MT4 cells assessed as reduction in cell viability incubated for 5 days by MTT assay; format: cell-based; settings: human, MT4 cells; time 5 day
[4] = tested on: Human immunodeficiency virus 1; experiment: Antiviral activity against HIV1 harboring reverse transcriptase L100I mutant infected in human MT4 cells assessed as protection against virus-induced cytopathic effect incubated for 5 days by MTT assay; format: functional, organism-based; settings: Human immunodeficiency virus 1, MT4, 120 h
[5] = tested on: Human immunodeficiency virus 1; experiment: Antiviral activity against HIV1 harboring reverse transcriptase K103N mutant infected in human MT4 cells assessed as protection against virus-induced cytopathic effect incubated for 5 days by MTT assay; format: functional, organism-based; settings: Human immunodeficiency virus 1, MT4, 120 h
[6] = tested on: Human immunodeficiency virus 1; experiment: Antiviral activity against HIV1 harboring reverse transcriptase Y181C mutant infected in human MT4 cells assessed as protection against virus-induced cytopathic effect incubated for 5 days by MTT assay; format: functional, organism-based; settings: Human immunodeficiency virus 1, MT4, 120 h
[7] = tested on: Human immunodeficiency virus 1; experiment: Antiviral activity against HIV1 harboring reverse transcriptase Y188L mutant infected in human MT4 cells assessed as protection against virus-induced cytopathic effect incubated for 5 days by MTT assay; format: functional, organism-based; settings: Human immunodeficiency virus 1, MT4, 120 h
[8] = tested on: Human immunodeficiency virus 1; experiment: Antiviral activity against HIV1 harboring reverse transcriptase E138K mutant infected in human MT4 cells assessed as protection against virus-induced cytopathic effect incubated for 5 days by MTT assay; format: functional, organism-based; settings: Human immunodeficiency virus 1, MT4, 120 h
[9] = tested on: Human immunodeficiency virus 1; experiment: Antiviral activity against HIV1 harboring reverse transcriptase F227L/V106A mutant infected in human MT4 cells assessed as protection against virus-induced cytopathic effect incubated for 5 days by MTT assay; format: functional, organism-based; settings: Human immunodeficiency virus 1, MT4, 120 h
[10] = Resistance fold, ratio of EC50 for HIV1 harboring reverse transcriptase Y181C mutant […] to EC50 for wild type HIV1 […]; format: functional
[11] = Resistance fold, ratio of EC50 for HIV1 harboring reverse transcriptase L100I mutant […] to EC50 for wild type HIV1 […]; format: functional
[12] = Resistance fold, ratio of EC50 for HIV1 harboring reverse transcriptase K103N mutant […] to EC50 for wild type HIV1 […]; format: functional
[13] = tested on: Human immunodeficiency virus 1; experiment: Antiviral activity against HIV1 harboring reverse transcriptase K103N/Y181C double mutant infected in human MT4 cells assessed as protection against virus-induced cytopathic effect incubated for 5 days by MTT assay; format: functional, organism-based; settings: Human immunodeficiency virus 1, MT4, 120 h
[14] = Selectivity index, ratio of CC50 for cytotoxicity against human MT4 cells to EC50 of Anti-HIV activity against HIV-1 IIIB infected in human MT4; format: toxicity, cell-based; settings: read-out: Selectivity Index
[15] = Resistance fold, ratio of EC50 for HIV1 harboring reverse transcriptase Y188L mutant […] to EC50 for wild type HIV1 […]; format: functional
[16] = Resistance fold, ratio of EC50 for HIV1 harboring reverse transcriptase E138K mutant […] to EC50 for wild type HIV1 […]; format: functional
[17] = Resistance fold, ratio of EC50 for HIV1 harboring reverse transcriptase F227L/V106A double mutant […] to EC50 for wild type HIV1 […]; format: functional
[18] = Resistance fold, ratio of EC50 for HIV1 harboring reverse transcriptase K103N/Y181C double mutant […] to EC50 for wild type HIV1 […]; format: functional
[19] = molecular target: Human immunodeficiency virus type 1 reverse transcriptase (Human immunodeficiency virus 1, UniProt Q72547); experiment: Inhibition of wild type HIV1 reverse transcriptase using oligo(dT)16 as primer measured after 40 mins by picogreen-dye based spectrofluorimetric analysis

CCCCCC(C)Nc1cc(Oc2c(OC)cc3cc(C#N)ccc3c2OC)nc(Nc2ccc(C#N)cc2)n1 (stereo unspecified)
pEC50 [1]: 5.81
pEC50 [2]: < 3.00
CC50 at 120 h [3]: > 125 µM
pEC50 [4]: 3.80
pEC50 [5]: 5.88
pEC50 [6]: 4.40
pEC50 [7]: < 3.00
pEC50 [8]: 5.65
pEC50 [9]: < 3.00
Ratio EC50 [10]: 26
Ratio EC50 [11]: 102
Ratio EC50 [12]: 1
pEC50 [13]: < 3.00
selectivity ratio [14]: > 151
Ratio EC50 [15]: >650
Ratio EC50 [16]: 1
Ratio EC50 [17]: >649
Ratio EC50 [18]: >649
pIC50 [19]: 5.92

COc1cc2cc(C#N)ccc2c(OC)c1Oc1cc(NCCCOC(C)C)nc(Nc2ccc(C#N)cc2)n1
pEC50 [1]: 7.37
pEC50 [2]: < 3.00
CC50 at 120 h [3]: > 125 µM
pEC50 [4]: 5.91
pEC50 [5]: 7.48
pEC50 [6]: 6.26
pEC50 [7]: 5.60
pEC50 [8]: 7.24
pEC50 [9]: < 3.00
Ratio EC50 [10]: 13
Ratio EC50 [11]: 29
Ratio EC50 [12]: 3
pEC50 [13]: 5.68
selectivity ratio [14]: > 5380
Ratio EC50 [15]: 58
Ratio EC50 [16]: 1
Ratio EC50 [17]: >23202
Ratio EC50 [18]: 48
pIC50 [19]: 6.49

COc1cc2cc(C#N)ccc2c(OC)c1Oc1cc(NCC(F)(F)F)nc(Nc2ccc(C#N)cc2)n1
pEC50 [1]: 7.46
pEC50 [2]: 3.73
CC50 at 120 h [3]: > 125 µM
pEC50 [4]: 6.31
pEC50 [5]: 7.40
pEC50 [6]: 6.44
pEC50 [7]: 5.74
pIC50 [8]: 7.14
pEC50 [9]: 5.23
Ratio EC50 [10]: 10
Ratio EC50 [11]: 14
Ratio EC50 [12]: 1
pEC50 [13]: 5.60
selectivity ratio [14]: > 6820
Ratio EC50 [15]: 51
Ratio EC50 [16]: 2
Ratio EC50 [17]: 168
Ratio EC50 [18]: 71
pIC50 [19]: 6.85

COc1cc2cc(C#N)ccc2c(OC)c1Oc1cc(N2CCOCC2)nc(Nc2ccc(C#N)cc2)n1
pEC50 [1]: 7.42
pEC50 [2]: < 3.00
CC50 at 120 h [3]: > 125 µM
pEC50 [4]: 6.28
pEC50 [5]: 6.89
pEC50 [6]: 6.54
pEC50 [7]: 5.63
pEC50 [8]: 7.29
pIC50 [9]: < 3.00
Ratio EC50 [10]: 8
Ratio EC50 [11]: 14
Ratio EC50 [12]: 3
pEC50 [13]: 4.62
selectivity ratio [14]: > 6510
Ratio EC50 [15]: 62
Ratio EC50 [16]: 1
Ratio EC50 [17]: >26525
Ratio EC50 [18]: 634
pIC50 [19]: 6.60

COc1cc2cc(C#N)ccc2c(OC)c1Oc1cc(NCC(C)(C)C)nc(Nc2ccc(C#N)cc2)n1
pEC50 [1]: 7.07
pEC50 [2]: < 3.00
CC50 at 120 h [3]: > 125 µM
pEC50 [4]: 5.06
pEC50 [5]: 6.85
pEC50 [6]: 5.62
pEC50 [7]: 3.95
pEC50 [8]: 6.51
pEC50 [9]: < 3.00
Ratio EC50 [10]: 28
Ratio EC50 [11]: 103
Ratio EC50 [12]: 2
pEC50 [13]: 3.00
selectivity ratio [14]: > 2880
Ratio EC50 [15]: 1313
Ratio EC50 [16]: 4
Ratio EC50 [17]: >11723
Ratio EC50 [18]: >11723
pIC50 [19]: 6.29

COc1cc2cc(C#N)ccc2c(OC)c1Oc1cc(NCCCCO)nc(Nc2ccc(C#N)cc2)n1
pEC50 [1]: 7.74
pEC50 [2]: 5.31
CC50 at 120 h [3]: 39.1 µM
pEC50 [4]: 6.52
pEC50 [5]: 7.70
pEC50 [6]: 6.72
pEC50 [7]: 6.13
pEC50 [8]: 7.33
pEC50 [9]: 5.55
Ratio EC50 [10]: 11
Ratio EC50 [11]: 17
Ratio EC50 [12]: 1
pEC50 [13]: 6.26
selectivity ratio [14]: 2190
Ratio EC50 [15]: 41
Ratio EC50 [16]: 3
Ratio EC50 [17]: 158
Ratio EC50 [18]: 31
pIC50 [19]: 7.10

COc1cc2cc(C#N)ccc2c(OC)c1Oc1cc(NC2CCC2)nc(Nc2ccc(C#N)cc2)n1
pEC50 [1]: 7.43
pEC50 [2]: < 3.00
CC50 at 120 h [3]: > 125 µM
pEC50 [4]: 5.99
pIC50 [5]: 7.36
pEC50 [6]: 6.48
pEC50 [7]: 5.61
pEC50 [8]: 7.08
pEC50 [9]: 3.84
Ratio EC50 [10]: 9
Ratio EC50 [11]: 28
Ratio EC50 [12]: 1
pEC50 [13]: 5.50
selectivity ratio [14]: > 7040
Ratio EC50 [15]: 68
Ratio EC50 [16]: 5
Ratio EC50 [17]: 3981
Ratio EC50 [18]: 86
pIC50 [19]: 6.96

COc1cc2cc(C#N)ccc2c(OC)c1Oc1cc(NCC(O)CO)nc(Nc2ccc(C#N)cc2)n1 (stereo unspecified)
pEC50 [1]: 7.00
pEC50 [2]: < 3.00
CC50 at 120 h [3]: 29.5 µM
pEC50 [4]: 5.98
pEC50 [5]: 7.03
pEC50 [6]: 6.14
pEC50 [7]: 5.90
pEC50 [8]: 6.55
pEC50 [9]: 5.51
Ratio EC50 [10]: 7
Ratio EC50 [11]: 17
Ratio EC50 [12]: 1
pEC50 [13]: 6.03
selectivity ratio [14]: 293
Ratio EC50 [15]: 13
Ratio EC50 [16]: 3
Ratio EC50 [17]: 31
Ratio EC50 [18]: 9
pIC50 [19]: 7.10

COc1cc2cc(C#N)ccc2c(OC)c1Oc1cc(NC2CCCC2)nc(Nc2ccc(C#N)cc2)n1
pIC50 [1]: 7.32
pEC50 [2]: < 3.00
CC50 at 120 h [3]: > 125 µM
pIC50 [4]: 5.43
pEC50 [5]: 7.26
pEC50 [6]: 6.28
pEC50 [7]: 5.12
pEC50 [8]: 6.64
pEC50 [9]: 3.88
Ratio EC50 [10]: 11
Ratio EC50 [11]: 77
Ratio EC50 [12]: 1
pEC50 [13]: 5.18
selectivity ratio [14]: > 5170
Ratio EC50 [15]: 158
Ratio EC50 [16]: 5
Ratio EC50 [17]: 2742
Ratio EC50 [18]: 138
pIC50 [19]: 6.68
